Tests used:
Conditions in all cases: pH 7
[1] = target: T1, Aldo-keto reductase family 1 member B10 (Homo sapiens, UniProt O60218); assay: IC50-Activity Assay (AKR1B10)
Experimental: (§1) The IC50-activity assays were carried out on the basis of the quantification of the NADPH consumption that takes place when the enzyme catalyzes the conversion of the aldehyde substrate into the alcohol product. […] The final reaction volume was 600 μL per reaction. All compounds were dissolved in dimethyl sulfoxide (DMSO), and the corresponding solution was added to the cell to be assayed in a final concentration of 2% (v/v) DMSO and incubated for 5 min at 25 °C prior to the addition of the substrate. The reaction was initiated by the addition of 60 mM glyceraldehyde and 0.2 mM pyridine-3-aldehyde, and the decrease in opticaldensity at 340 nm was monitored for at least 3 min at 25 °C in a UV−vis spectrophotometer (Cary 400 Bio (Varian)).

[2] = target: Aldo-keto reductase family 1 member B10 [K125R,V301L] (Homo sapiens, UniProt O60218, K125R/V301L); assay: IC50-Activity Assay (AR)
Experimental: as §1, with “of 1” for “of 60”, “mM glyceraldehyde,” for “mM glyceraldehyde and 0.2 mM pyridine-3-aldehyde,”, “in optical density” for “in opticaldensity”

[3] = target: T1, Aldo-keto reductase family 1 member B10; assay: IC50-Activity Assay (AR)
Experimental: as §1, with “of 1” for “of 60”, “mM glyceraldehyde,” for “mM glyceraldehyde and 0.2 mM pyridine-3-aldehyde,”, “in optical density” for “in opticaldensity”

[4] = target: Aldo-keto reductase family 1 member B1 (Homo sapiens, UniProt P15121); assay: IC50-Activity Assay (AR)
Experimental: as §1, with “of 1” for “of 60”, “mM glyceraldehyde,” for “mM glyceraldehyde and 0.2 mM pyridine-3-aldehyde,”, “in optical density” for “in opticaldensity”

T1 sequence (O60218 whole entry): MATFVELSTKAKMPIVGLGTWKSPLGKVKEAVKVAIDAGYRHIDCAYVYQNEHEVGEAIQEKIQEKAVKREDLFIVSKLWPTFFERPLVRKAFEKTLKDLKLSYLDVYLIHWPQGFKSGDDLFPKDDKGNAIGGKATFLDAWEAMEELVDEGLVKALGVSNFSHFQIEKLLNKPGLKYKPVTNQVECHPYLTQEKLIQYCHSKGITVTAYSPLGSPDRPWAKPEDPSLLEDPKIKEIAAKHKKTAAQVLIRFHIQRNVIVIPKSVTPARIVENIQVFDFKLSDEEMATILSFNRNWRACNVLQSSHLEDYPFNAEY
Sequence of Aldo-keto reductase family 1 member B10 [K125R,V301L] (O60218 whole entry K125R/V301L): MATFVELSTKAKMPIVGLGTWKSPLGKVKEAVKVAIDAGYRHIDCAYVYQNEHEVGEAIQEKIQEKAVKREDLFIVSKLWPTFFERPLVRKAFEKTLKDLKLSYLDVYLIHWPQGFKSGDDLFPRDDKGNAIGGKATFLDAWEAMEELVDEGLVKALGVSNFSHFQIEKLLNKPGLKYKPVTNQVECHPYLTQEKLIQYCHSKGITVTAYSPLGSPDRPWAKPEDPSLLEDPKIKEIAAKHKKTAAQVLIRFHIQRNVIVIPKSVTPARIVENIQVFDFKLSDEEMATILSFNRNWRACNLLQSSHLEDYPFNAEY

SMILES	IC50 [1]	IC50 [2]	IC50 [3]	IC50 [4]
COc1ccc2c(C(=S)N(C)CC(=O)O)cccc2c1C(F)(F)F [N-{[6-methoxy-5-(trifluoromethyl)naphthalen-1-yl]carbonothioyl}-N-methylglycine]	0.0012 µM	–	–	–
O=C(O)COc1cc(Cl)ccc1C(=O)NCc1c(Br)c(Br)c(Br)c(Br)c1Br [2-(5-chloro-2-(((perbromophenyl)methyl)carbamoyl)phenoxy)acetic acid]	0.03 µM	0.08 µM	0.08 µM	21.7 µM
CC1=C(CC(=O)O)c2cc(F)ccc2/C1=C\c1ccc([S@@+](C)[O-])cc1 [cis-5-Fluoro-2-methyl-1-((p-methylsulfinyl)benzylidene)indene-3-acetic acid]	–	2.69 µM	–	–
O=C(O)COc1cc(Cl)ccc1C(=O)NCc1c(Br)cc(Br)cc1Br [2-(5-chloro-2-((2,4,6-tribromobenzyl)carbamoyl)phenoxy)acetic acid]	0.43 µM	1 µM	1 µM	21.4 µM
COc1c(Br)c(Br)c(Br)c(Br)c1Cn1c(=O)ccn(CC(=O)O)c1=O [2-(2,4-dioxo-3-(2,3,4,5-tetrabromo-6-methoxybenzyl)-3,4-dihydropyrimidin-1(2H)-yl)acetic acid]	–	0.45 µM	–	–

Now from value to compound:

IC50 [1]	IC50 [2]	IC50 [3]	IC50 [4]	SMILES
2.7 µM	4.4 µM	4.4 µM	–	O=C(O)COc1cc(Cl)ccc1C(=O)NCc1ccc(Br)cc1F [IDD388]
3.7 µM	4.5 µM	4.5 µM	–	O=C(O)COc1cc(Cl)ccc1C(=O)NCc1ccc(Br)cc1 [MK181]
–	–	–	0.003 µM	O=C(O)COc1cc(F)ccc1C(=S)NCc1ccc(Br)cc1F [IDD594]
3.4 µM	7 µM	7 µM	–	O=C(O)COc1cc(Cl)ccc1C(=O)NCc1c(F)c(F)c(Br)c(F)c1F [MK319]
